The source of these data is publication PMC6138237, “Machine intelligence decrypts β-lapachone as an allosteric 5-lipoxygenase inhibitor” (Chemical Science, 2018).

Where two headings read alike, the source gives them in different places.

Common to all, as to assay type: biochemical
For assay [1], the target named is T1, NEK2 (Homo sapiens, UniProt P51955).
T1 sequence (P51955 1-445): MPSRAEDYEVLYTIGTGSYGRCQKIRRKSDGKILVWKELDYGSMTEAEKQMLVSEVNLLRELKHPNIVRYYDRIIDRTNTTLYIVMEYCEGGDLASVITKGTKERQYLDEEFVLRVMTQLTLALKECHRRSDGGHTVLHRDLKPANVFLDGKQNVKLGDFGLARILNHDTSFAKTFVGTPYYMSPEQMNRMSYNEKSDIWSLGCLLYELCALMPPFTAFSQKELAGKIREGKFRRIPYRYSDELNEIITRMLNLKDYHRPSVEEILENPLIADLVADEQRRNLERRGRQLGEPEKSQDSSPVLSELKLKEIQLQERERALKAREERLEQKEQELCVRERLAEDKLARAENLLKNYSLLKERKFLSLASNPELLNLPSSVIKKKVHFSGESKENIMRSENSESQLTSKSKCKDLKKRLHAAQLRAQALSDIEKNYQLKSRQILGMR
Description: ExpresS Diversity Kinase Profile, Cerep (LANCE): NEK2.

For assay [2], the target named is MARK1 (Homo sapiens, UniProt Q9P0L2). Description: ExpresS Diversity Kinase Profile, Cerep (LANCE): MARK1.
Assay [3] concerns the target EphA2 (Homo sapiens, UniProt P29317). Description: ExpresS Diversity Kinase Profile, Cerep (LANCE): EphA2. (In general: TR-FRET usually uses a lanthanide donor and a delayed reading to cut background.)
The target of assay [4] is JNK1 (Homo sapiens, UniProt P45983). Briefly: ExpresS Diversity Kinase Profile, Cerep (LANCE): JNK1.
The target in assay [5] is T2, PDK1 (Homo sapiens, UniProt O15530).
T2 sequence (O15530 1-556): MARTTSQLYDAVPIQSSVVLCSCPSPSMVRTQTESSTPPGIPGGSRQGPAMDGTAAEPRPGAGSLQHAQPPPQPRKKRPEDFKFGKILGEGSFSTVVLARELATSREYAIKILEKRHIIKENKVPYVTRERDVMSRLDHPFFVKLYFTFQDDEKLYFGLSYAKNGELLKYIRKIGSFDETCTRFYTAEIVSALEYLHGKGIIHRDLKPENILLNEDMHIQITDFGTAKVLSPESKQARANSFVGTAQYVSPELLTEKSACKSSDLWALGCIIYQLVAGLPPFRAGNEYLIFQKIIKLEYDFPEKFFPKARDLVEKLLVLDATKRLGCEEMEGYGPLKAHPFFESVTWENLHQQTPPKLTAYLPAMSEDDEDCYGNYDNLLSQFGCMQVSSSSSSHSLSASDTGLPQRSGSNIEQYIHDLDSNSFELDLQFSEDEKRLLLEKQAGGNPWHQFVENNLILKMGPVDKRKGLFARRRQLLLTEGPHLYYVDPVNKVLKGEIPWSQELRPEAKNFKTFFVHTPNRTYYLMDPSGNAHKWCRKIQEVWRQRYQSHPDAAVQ
Briefly: ExpresS Diversity Kinase Profile, Cerep (LANCE): PDK1.

The target of assay [6] is T3, IRAK4 (Homo sapiens, UniProt Q9NWZ3).
T3 sequence (Q9NWZ3 1-460): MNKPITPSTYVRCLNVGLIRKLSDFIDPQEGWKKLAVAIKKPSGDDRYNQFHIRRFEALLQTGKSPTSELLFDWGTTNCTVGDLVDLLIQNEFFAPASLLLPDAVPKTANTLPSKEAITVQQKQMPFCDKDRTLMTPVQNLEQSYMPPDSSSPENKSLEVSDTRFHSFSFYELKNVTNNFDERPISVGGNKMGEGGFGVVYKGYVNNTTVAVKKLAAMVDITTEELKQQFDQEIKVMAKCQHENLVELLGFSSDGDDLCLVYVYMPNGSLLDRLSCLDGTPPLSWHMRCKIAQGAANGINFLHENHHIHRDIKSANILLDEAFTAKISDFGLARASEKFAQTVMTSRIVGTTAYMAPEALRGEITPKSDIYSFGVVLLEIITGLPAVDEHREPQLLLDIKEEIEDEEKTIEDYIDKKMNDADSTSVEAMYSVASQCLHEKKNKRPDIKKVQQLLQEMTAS
Briefly: ExpresS Diversity Kinase Profile, Cerep (LANCE): IRAK4.

Assay [7] addresses T4, CHK1 (Homo sapiens, UniProt O14757).
T4 sequence (O14757 1-476): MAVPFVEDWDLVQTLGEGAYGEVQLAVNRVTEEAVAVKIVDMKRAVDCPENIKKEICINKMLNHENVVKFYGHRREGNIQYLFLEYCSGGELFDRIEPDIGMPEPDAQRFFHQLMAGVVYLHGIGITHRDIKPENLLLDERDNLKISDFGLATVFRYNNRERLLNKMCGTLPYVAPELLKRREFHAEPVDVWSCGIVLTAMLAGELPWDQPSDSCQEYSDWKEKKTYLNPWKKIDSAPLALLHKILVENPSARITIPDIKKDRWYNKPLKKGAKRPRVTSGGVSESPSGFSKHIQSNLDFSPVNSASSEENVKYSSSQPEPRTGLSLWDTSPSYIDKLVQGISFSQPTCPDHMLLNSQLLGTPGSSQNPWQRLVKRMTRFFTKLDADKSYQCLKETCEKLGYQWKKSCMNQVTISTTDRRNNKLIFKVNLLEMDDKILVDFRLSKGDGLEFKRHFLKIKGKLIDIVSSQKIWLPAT
Briefly: ExpresS Diversity Kinase Profile, Cerep (LANCE): CHK1.

In assay [8] the target is RAF-1 (Homo sapiens, UniProt P04049). Briefly: ExpresS Diversity Kinase Profile, Cerep (LANCE): RAF-1. The conditions noted are these: for inhibition at 150 µM: RAF-1.
For assay [9], the target named is CDK1 (Homo sapiens, UniProt P06493). Description: ExpresS Diversity Kinase Profile, Cerep (LANCE): CDK1.
Where [10] appears, read: Flag: Interference, read-out: % Inhibition of control values, 1st measurement.
Where [11] appears, read: Flag: Interference, read-out: % Inhibition of control values, 2nd measurement.
Setting [12] is: n = 2, Flag: Interference, read-out: % Inhibition of control values, Mean.
The mark [13] stands for this setting: n = 2, read-out: % Inhibition of control values, Mean.
Where [14] appears, read: read-out: % Inhibition of control values, 1st measurement.
The mark [15] stands for this setting: read-out: % Inhibition of control values, 2nd measurement.

Chain of JNK1 (P45983 whole entry): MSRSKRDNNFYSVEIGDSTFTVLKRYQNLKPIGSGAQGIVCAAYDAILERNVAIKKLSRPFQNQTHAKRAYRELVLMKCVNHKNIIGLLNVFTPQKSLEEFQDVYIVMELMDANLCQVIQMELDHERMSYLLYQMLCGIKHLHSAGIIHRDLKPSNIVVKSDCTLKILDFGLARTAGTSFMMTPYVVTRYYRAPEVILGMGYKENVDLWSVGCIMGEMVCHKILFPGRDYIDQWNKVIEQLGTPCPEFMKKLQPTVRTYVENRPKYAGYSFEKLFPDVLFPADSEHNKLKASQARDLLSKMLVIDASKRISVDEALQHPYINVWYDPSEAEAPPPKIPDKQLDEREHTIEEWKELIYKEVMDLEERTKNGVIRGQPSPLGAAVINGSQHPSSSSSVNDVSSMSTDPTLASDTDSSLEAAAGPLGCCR
Chain of CDK1 (P06493 whole entry): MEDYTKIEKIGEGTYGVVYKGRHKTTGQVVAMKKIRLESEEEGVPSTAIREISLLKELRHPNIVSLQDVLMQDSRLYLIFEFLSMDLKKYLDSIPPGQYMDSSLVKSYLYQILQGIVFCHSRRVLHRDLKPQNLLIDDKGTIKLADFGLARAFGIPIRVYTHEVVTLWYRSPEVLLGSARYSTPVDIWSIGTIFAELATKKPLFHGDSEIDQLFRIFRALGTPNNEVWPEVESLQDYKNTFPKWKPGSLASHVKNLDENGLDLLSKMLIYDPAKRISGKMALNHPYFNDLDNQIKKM
Chain of CDK1 (P14635 whole entry partner): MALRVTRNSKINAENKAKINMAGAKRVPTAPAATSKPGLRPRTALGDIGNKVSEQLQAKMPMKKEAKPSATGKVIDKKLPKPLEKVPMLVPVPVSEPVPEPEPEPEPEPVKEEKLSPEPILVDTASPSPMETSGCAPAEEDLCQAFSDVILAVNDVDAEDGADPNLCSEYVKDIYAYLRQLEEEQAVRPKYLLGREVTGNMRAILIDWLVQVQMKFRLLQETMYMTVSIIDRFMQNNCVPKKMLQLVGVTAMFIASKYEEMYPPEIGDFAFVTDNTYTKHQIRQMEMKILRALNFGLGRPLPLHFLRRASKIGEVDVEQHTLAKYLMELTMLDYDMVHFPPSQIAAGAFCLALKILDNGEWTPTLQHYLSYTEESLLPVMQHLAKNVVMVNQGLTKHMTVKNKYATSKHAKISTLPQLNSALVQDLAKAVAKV
Chain of RAF-1 (P04049 whole entry): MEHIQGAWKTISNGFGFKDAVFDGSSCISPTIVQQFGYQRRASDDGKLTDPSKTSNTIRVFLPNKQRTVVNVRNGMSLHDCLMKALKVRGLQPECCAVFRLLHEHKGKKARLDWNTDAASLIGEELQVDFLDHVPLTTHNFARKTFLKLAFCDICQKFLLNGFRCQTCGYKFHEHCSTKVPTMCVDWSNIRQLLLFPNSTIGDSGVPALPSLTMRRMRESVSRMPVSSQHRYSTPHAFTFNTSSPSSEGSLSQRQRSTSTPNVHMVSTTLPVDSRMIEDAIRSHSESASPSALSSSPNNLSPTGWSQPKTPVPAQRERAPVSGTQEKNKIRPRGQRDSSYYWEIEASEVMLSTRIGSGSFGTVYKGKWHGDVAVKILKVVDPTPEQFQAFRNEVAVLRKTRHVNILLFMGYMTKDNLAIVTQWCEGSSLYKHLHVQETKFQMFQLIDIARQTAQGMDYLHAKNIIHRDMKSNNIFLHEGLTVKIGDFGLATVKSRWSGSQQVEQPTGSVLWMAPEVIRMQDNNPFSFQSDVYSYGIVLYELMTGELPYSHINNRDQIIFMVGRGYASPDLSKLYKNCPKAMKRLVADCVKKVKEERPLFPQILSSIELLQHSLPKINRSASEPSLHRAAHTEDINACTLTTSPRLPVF
Chain of EphA2 (P29317 24-976): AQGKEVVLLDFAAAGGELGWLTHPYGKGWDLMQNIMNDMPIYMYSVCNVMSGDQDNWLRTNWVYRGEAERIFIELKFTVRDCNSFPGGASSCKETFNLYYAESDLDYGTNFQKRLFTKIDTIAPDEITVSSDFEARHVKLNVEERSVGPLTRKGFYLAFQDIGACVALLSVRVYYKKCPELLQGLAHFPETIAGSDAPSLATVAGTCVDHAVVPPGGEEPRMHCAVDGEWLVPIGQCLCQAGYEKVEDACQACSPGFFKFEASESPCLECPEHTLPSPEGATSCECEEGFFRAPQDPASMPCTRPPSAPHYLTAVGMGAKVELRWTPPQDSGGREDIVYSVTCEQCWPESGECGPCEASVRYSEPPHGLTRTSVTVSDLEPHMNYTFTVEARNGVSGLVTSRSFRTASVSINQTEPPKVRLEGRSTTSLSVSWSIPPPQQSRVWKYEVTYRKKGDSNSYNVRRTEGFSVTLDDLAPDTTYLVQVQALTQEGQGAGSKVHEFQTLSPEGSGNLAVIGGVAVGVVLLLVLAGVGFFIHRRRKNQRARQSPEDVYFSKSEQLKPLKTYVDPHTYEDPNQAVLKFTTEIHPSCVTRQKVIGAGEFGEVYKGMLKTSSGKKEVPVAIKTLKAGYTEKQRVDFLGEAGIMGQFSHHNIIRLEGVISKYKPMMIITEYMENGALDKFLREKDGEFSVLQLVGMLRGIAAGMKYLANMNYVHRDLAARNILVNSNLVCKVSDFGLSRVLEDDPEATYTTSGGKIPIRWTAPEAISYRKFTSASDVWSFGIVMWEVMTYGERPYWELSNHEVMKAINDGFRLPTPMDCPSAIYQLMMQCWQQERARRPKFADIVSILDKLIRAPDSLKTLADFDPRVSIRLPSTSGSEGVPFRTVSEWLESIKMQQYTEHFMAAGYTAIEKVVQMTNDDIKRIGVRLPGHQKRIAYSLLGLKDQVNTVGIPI
Chain of MARK1 (Q9P0L2 whole entry): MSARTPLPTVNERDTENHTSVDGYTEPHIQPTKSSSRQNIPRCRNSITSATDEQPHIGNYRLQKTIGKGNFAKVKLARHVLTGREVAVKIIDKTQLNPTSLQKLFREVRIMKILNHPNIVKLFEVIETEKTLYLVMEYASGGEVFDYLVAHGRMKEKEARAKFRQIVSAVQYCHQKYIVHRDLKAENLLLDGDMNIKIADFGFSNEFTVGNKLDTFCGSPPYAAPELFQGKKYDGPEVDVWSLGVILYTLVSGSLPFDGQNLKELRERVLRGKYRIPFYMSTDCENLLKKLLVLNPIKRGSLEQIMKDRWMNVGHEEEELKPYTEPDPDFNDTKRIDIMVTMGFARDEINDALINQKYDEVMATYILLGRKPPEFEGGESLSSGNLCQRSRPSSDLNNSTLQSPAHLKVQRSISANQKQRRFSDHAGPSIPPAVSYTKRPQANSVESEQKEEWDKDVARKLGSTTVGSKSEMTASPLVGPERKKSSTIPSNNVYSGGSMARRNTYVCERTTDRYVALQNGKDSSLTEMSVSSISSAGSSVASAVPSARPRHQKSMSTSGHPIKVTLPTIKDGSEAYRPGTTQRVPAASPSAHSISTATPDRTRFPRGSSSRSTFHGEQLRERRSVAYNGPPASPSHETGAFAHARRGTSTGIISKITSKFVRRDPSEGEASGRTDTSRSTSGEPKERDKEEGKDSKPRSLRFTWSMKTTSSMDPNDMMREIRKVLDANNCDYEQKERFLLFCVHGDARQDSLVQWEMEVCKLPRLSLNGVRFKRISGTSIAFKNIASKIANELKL

As for `CN[C@@H]1C[C@H]2O[C@@](C)([C@@H]1OC)n1c3ccccc3c3c4c(c5c6ccccc6n2c5c31)C(=O)NC4` [Staurosporine, reference compound], the nHill in [1] (control) is 0.9; in assay [2] (control), 2.5; in [3] (control) it was 1.6; in [4] (control), 1.8; in assay [5] (control), more than 3; in assay [6] (control) it was 0.7. For the same compound, the nHill was found to be 1.5 in assay [7] (control); 2.4 in assay [8] (RAF1, control); 1.1 in assay [9] (control).
In general, inhibition refers to the drop in the measured response relative to a control, in per cent. Consider `CC1(C)CCC2=C(O1)c1ccccc1C(=O)C2=O` [β-Lapachone], for which the inhibition at 150 µM in assay [1] (setting [10]) was 19%; in [1] (setting [11]), 18.4%; in assay [1] (setting [12]), 18.7%; in assay [2] (setting [13]), -57.4%; in assay [2] (setting [14]), -70.1%; in assay [2] (setting [15]) it was -44.7%. Besides, the inhibition at 150 µM in assay [3] (setting [10]) was determined as 63.7%; in assay [3] (setting [11]) it was 63.5%; in assay [3] (setting [12]) it was 63.6%; in [4] (setting [10]), 59.8%; in assay [4] (setting [11]), 55.6%; in [4] (setting [12]), 57.7%. Besides, the inhibition at 150 µM in assay [5] (setting [13]) was 1.4%; in assay [5] (setting [14]), 8.9%; in assay [5] (setting [15]) it was -6.1%; in assay [6] (setting [13]), 2.2%; in assay [6] (setting [14]), -1.2%; in [6] (setting [15]), 5.6%. The inhibition at 150 µM was found to be 9.4% in assay [7] (setting [10]); 19.7% in assay [7] (setting [11]); 14.5% in assay [7] (setting [12]); 57.3% in [8] (setting [13]); 55.4% in assay [8] (setting [14]); 59.3% in assay [8] (setting [15]). The inhibition at 150 µM in assay [9] (setting [10]) worked out at 66%; in assay [9] (setting [11]), 68%; in assay [9] (setting [12]), 67%.
